A short description of the data set: aqueous solubility of the crystalline forms. It is filed as physicochemical. The following applies: pH 1.5, aqueous buffer, in water at physiological pHs (pH1.5-8.0).

Structures are written as SMILES.

For orientation: solubility means the concentration that dissolves in the medium under given conditions. A high value points to a readily soluble substance. With `COc1cc(C(=O)O)ccc1NC(=O)[C@@H]1N[C@@H](CC(C)(C)C)[C@](C#N)(c2ccc(Cl)cc2F)[C@H]1c1cccc(Cl)c1F` [Compound A, 4-{[(2R,3S,4R,5S)-4-(4-Chloro-2-fluoro-phenyl)-3-(3-chloro-2-fluoro-phenyl)-4-cyano-5-(2,2-dimethyl-propyl)-pyrrolidine-2-carbonyl]-amino}-3-methoxy-benzoic acid], the solubility is under 0.05 µg/mL.

For the origin of these results see patent US10227298B2, “Solid forms of a pharmaceutically active compound” (Hoffmann-La Roche Inc., priority 2014, dated 2019).
